# Legend:
# Format in all cases: cell-based
# [1] = molecular target: T1, Rat mGlu2 (Rattus norvegicus, UniProt P31421); assay: mGlu receptor in vitro assay, thallium flux through GIRK channels, rat mGlu2; conditions: PAM potency with EC20 glutamate
# T1 construct: expressed in transfected cells; host or cells: HEK-293 co-expressing GIRK channels
# In short: (§1)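 HEK-293 cells co-expressing rat mGlu2 or mGlu3 and GIRK, dye-loaded with FluoZin2-AM, compound added about 2.5 min before thallium buffer with EC20 glutamate; potency from the 5-15 s fluorescence slope, 10-point 4-parameter fit. Calcium assay at mGlu3 used TREx293 mGlu3 Gα15 cells induced with tetracycline 20 ng/mL for 20 h.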
# [2] = molecular target: T2, Rat mGlu3 (Rattus norvegicus, UniProt P31422); assay: mGlu receptor in vitro assay (thallium flux through GIRK channels / calcium assay), rat mGlu3; conditions: PAM potency with EC20 glutamate
# T2 construct: expressed in transfected cells; host or cells: HEK-293 co-expressing GIRK channels
# In short: as §1
# [3] = molecular target: Human mGlu2 (Homo sapiens, UniProt Q14416); assay: mGlu receptor in vitro assay, human mGlu2
# [4] = molecular target: Human mGlu3 (Homo sapiens, UniProt Q14832); assay: mGlu receptor in vitro assay, human mGlu3
# Procedure: Human Embryonic Kidney (HEK-293) cell lines co-expressing rat mGlu receptors 2, 3, 4, 6, 7 or 8 and G protein-coupled inwardly-rectifying potassium (GIRK) channels were grown in Growth Media containing 45% DMEM, 45% F-12, 10% FBS, 20 mM HEPES, 2 mM L-glutamine, antibiotic/antimycotic, non-essential amino acids, 700 μg/mL G418, and 0.6 μg/ml puromycin at 37° C. in the presence of 5% CO2. […] All cell culture reagents were purchased from Invitrogen Corp. (Carlsbad, CA) unless otherwise noted. Calcium assays were used to assess activity of compounds at mGlu1 and mGlu5, as previously described in Engers et al (J. Med. Chem. 2009, 52, 4115-4118). Calcium assays at mGlu3 were performed as described for mGlu5 with the exception that TREx293 mGlu3 Gα15 cells were treated with tetracycline at 20 ng/mL for 20 h prior to assay.
# Briefly, cells were plated into 384-well, black-walled, clear-bottomed poly-D-lysine-coated plates at a density of 15,000 cells/20 μL/well in DMEM containing 10% dialyzed FBS, 20 mM HEPES, and 100 units/mL penicillin/streptomycin (assay media). Plated cells were incubated overnight at 37° C. in the presence of 5% CO2. The following day, the medium was exchanged from the cells to assay buffer [Hanks' balanced salt solution (Invitrogen) containing 20 mM HEPES, pH 7.3] using an ELX405 microplate washer (BioTek), leaving 20 μL/well, followed by the addition of 20 μL/well FluoZin2-AM (330 nM final concentration) indicator dye (Invitrogen; prepared as a stock in DMSO and mixed in a 1:1 ratio with Pluronic acid F-127) in assay buffer. Cells were incubated for 1 h at room temperature, and the dye exchanged to assay buffer using an ELX405, leaving 20 μL/well. Test compounds were diluted to 2 times their final desired concentration in assay buffer (0.3% DMSO final concentration). Agonists were diluted in thallium buffer [125 mM sodium bicarbonate (added fresh the morning of the experiment), 1 mM magnesium sulfate, 1.8 mM calcium sulfate, 5 mM glucose, 12 mM thallium sulfate, and 10 mM HEPES, pH 7.3] at 5 times the final concentration to be assayed. Cell plates and compound plates were loaded onto a kinetic imaging plate reader (FDSS 6000 or 7000; Hamamatsu Corporation, Bridgewater, NJ). Appropriate baseline readings were taken (10 images at 1 Hz; excitation, 470±20 nm; emission, 540±30 nm) and test compounds were added in a 20 μL volume and incubated for approximately 2.5 min before the addition of 10 μL of thallium buffer with or without agonist. After the addition of agonist, data were collected for approximately an additional 2.5 min. Data were analyzed using Excel (Microsoft Corp, Redmond, WA). The slope of the fluorescence increase beginning 5 s after thallium/agonist addition and ending 15 s after thallium/agonist addition was calculated, corrected to vehicle and maximal agonist control slope values, and plotted in using either XLfit (ID Business Solutions Ltd) or Prism software (GraphPad Software, San Diego, CA) to generate concentration-response curves. Potencies were calculated from fits using a four-point parameter logistic equation. For concentration-response curve experiments, compounds were serially diluted 1:3 into 10-point concentration response curves and were transferred to daughter plates using an Echo acoustic plate reformatter (Labcyte, Sunnyvale, CA). Test compounds were applied and followed by EC20 concentrations of glutamate.
# T2 sequence (P31422 23-879): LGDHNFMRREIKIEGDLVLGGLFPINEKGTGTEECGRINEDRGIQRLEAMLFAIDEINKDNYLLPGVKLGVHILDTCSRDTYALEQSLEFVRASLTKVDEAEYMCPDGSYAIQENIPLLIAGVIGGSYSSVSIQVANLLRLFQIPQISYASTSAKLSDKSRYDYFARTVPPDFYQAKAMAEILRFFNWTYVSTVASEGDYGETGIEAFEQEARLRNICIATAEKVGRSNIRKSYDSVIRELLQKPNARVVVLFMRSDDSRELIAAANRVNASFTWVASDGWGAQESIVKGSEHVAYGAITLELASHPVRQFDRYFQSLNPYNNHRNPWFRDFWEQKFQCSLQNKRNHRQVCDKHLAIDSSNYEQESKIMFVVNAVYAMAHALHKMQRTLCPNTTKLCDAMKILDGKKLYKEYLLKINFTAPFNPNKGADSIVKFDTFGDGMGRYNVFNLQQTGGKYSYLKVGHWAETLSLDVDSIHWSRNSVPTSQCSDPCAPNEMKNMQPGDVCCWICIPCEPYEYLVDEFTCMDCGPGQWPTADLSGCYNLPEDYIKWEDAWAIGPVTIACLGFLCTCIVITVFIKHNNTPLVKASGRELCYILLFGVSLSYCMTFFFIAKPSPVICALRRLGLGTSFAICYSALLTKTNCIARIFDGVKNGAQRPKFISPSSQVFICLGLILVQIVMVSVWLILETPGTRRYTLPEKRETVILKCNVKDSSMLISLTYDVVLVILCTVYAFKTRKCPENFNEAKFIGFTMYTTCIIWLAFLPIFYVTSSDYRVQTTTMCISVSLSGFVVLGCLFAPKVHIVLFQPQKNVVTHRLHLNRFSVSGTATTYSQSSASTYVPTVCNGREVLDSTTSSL
# Sequence of Human mGlu2 (Q14416 19-872): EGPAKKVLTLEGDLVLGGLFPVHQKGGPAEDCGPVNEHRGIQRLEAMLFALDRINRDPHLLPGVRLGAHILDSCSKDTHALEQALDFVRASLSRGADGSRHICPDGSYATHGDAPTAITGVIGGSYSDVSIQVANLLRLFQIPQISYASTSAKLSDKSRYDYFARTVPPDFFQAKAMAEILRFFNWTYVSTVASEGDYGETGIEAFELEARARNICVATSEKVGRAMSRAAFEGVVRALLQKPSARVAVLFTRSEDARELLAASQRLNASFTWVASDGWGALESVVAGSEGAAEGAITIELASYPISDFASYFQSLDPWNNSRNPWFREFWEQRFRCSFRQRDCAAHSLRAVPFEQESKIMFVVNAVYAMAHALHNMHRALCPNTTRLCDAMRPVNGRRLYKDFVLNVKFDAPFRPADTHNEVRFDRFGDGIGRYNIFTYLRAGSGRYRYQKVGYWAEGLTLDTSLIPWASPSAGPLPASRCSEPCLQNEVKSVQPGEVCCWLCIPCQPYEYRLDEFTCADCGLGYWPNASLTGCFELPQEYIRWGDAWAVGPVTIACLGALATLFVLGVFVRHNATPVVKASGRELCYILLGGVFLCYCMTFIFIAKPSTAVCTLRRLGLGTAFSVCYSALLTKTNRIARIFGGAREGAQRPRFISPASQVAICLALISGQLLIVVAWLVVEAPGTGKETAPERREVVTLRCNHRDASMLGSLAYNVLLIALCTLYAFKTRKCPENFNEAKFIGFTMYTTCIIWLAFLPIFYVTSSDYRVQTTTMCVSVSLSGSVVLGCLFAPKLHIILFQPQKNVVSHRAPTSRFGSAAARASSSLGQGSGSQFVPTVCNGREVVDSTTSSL
# Sequence of Human mGlu3 (Q14832 23-879): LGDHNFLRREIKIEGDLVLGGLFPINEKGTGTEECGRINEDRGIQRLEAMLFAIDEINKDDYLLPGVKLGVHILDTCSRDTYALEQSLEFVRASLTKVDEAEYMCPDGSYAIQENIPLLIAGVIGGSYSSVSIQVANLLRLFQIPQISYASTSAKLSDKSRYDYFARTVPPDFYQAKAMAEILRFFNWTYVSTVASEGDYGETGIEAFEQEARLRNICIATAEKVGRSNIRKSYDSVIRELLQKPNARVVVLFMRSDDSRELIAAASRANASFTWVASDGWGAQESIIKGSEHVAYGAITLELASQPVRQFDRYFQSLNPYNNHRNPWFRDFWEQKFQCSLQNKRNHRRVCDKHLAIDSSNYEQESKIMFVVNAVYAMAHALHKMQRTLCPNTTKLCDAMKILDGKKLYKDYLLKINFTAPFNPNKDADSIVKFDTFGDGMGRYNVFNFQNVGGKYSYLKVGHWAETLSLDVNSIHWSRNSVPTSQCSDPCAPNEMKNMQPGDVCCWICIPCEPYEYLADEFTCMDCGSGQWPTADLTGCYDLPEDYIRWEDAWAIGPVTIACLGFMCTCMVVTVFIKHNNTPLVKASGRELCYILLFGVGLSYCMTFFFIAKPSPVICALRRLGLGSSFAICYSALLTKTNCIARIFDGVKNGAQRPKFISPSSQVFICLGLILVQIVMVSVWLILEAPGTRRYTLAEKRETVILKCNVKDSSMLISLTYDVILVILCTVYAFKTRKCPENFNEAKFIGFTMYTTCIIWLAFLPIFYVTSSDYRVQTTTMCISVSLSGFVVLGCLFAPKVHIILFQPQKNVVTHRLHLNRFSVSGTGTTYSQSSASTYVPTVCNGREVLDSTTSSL
# T1 sequence (P31421 19-872): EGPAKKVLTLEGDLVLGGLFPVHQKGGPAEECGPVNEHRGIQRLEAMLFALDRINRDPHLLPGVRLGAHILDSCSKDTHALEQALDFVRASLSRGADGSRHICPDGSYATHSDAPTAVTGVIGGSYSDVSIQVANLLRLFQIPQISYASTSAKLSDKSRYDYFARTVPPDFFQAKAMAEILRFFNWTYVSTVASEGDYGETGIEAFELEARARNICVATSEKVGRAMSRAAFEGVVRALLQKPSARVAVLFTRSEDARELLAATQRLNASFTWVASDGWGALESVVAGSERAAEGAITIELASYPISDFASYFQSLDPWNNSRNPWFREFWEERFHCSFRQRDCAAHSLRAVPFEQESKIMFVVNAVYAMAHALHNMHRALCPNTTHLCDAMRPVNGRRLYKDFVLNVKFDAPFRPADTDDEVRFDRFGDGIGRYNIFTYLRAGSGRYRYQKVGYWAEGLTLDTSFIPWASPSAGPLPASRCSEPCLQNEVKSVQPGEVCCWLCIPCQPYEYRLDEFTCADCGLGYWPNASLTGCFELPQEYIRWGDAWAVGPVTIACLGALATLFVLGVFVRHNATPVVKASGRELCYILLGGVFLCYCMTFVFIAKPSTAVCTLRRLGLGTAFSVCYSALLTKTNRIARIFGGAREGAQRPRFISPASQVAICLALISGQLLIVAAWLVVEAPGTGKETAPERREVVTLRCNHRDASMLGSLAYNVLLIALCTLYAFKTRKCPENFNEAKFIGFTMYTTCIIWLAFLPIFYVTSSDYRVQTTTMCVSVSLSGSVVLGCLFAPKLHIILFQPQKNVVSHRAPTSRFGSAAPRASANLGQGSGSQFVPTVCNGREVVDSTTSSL
EC50 [1] [nM],EC50 [2] [nM],EC50 [3] [nM],EC50 [4] [nM],Structure (SMILES)
430,104,297,148,"COc1ccc(-c2cnc(COc3ccc(C(=O)CC(C)(C)C)c(O)c3C)cn2)cc1C(=O)O [compound 128, 5-(5-((4-(3,3-Dimethylbutanoyl)-3-hydroxy-2-methylphenoxy)methyl)pyrazin-2-yl)-2-methoxybenzoic acid]"
92,39,15,16,"COc1ccc(C(=O)O)cc1OCC#CCOc1ccc(C(=O)CC(C)(C)C)c(O)c1C [Example 10, 3-{4-[4-(3,3-Dimethylbutanoyl)-3-hydroxy-2-methylphenoxy]but-2-ynyloxy}-4-methoxybenzoic acid]"
215,1030,147,634,"COc1ccc(C(=O)O)cc1OCCC(C)(C)CCOc1ccc(C(=O)CC(C)(C)C)c(O)c1C [Example 29, 3-{5-[4-(3,3-Dimethylbutanoyl)-3-hydroxy-2-methylphenoxy]-3,3-dimethylpentyloxy}-4-methoxybenzoic acid]"
441,> 30000,100,> 10000,"Cc1c(OCOc2ccc(C(=O)CC(C)(C)C)c(O)c2C)cccc1C(=O)O [compound 94, 3-{[4-(3,3-Dimethylbutanoyl)-3-hydroxy-2-methylphenoxy]methoxy}-2-methylbenzoic acid]"
355,1520,153,768,"Cc1c(OCCCCCOc2ccc(C(=O)CC(C)(C)C)c(O)c2C)cccc1C(=O)O [Example 17, 3-{5-[4-(3,3-Dimethylbutanoyl)-3-hydroxy-2-methylphenoxy]pentyloxy}-2-methylbenzoic acid]"
23,70,5,15,"COc1ccc(C(=O)O)cc1OCCSCCOc1ccc(C(=O)CC(C)(C)C)c(O)c1C [Example 12, 3-(2-{2-[4-(3,3-Dimethylbutanoyl)-3-hydroxy-2-methylphenoxy]ethylthio}ethoxy)-4-methoxybenzoic acid]"
288,818,165,472,"COc1ccc(C(=O)O)cc1OCCCCCCOc1ccc(C(=O)CC(C)(C)C)c(O)c1C [Example 19, 3-{6-[4-(3,3-Dimethylbutanoyl)-3-hydroxy-2-methylphenoxy]hexyloxy}-4-methoxybenzoic acid]"
2160,4090,156,1620,"COc1ccc(C(=O)O)cc1OCCNCCOc1ccc(C(=O)CC(C)(C)C)c(O)c1C [Example 26, 3-[2-({2-[4-(3,3-Dimethylbutanoyl)-3-hydroxy-2-methylphenoxy]ethyl}amino)ethoxy]-4-methoxybenzoic acid]"
16,2300,9,> 30000,"CCCC(=O)c1ccc(OCCCCCOc2ccc(C(=O)O)cc2OC)c(C)c1O [Example 14, 4-[5-(4-Butanoyl-3-hydroxy-2-methylphenoxy)pentyloxy]-3-methoxybenzoic acid]"
56,> 10000,28,> 30000,"CCCC(=O)c1ccc(OCCSCCOc2cccc(C(=O)O)c2C)c(C)c1O [Example 16, 3-{2-[2-(4-Butanoyl-3-hydroxy-2-methylphenoxy)ethylthio]ethoxy}-2-methylbenzoic acid]"

# Second part, the compound before the results:
Structure (SMILES),EC50 [1] [nM],EC50 [2] [nM],EC50 [3] [nM],EC50 [4] [nM]
"[2H]C([2H])(CCCC([2H])([2H])Oc1ccc(C(=O)CCC)c(O)c1C)Oc1ccc(C(=O)O)cc1OC [Example 51, 4-((5-(4-Butyryl-3-hydroxy-2-methylphenoxy)pentyl-1,1,5,5-d4)oxy)-3-methoxybenzoic acid]",22,2380,9,> 30000
"COc1ccc(C(=O)O)cc1OCCCCOc1ccc(C(=O)c2ccccc2)c(O)c1C [compound 59, 3-(4-(4-Benzoyl-3-hydroxy-2-methylphenoxy)butoxy)-4-methoxybenzoic acid]",182,222,325,408
"COc1ccc(C(=O)O)cc1OCCCCOc1ccc(C(=O)c2ccc(F)cc2)c(O)c1C [compound 65, 3-(4-(4-(4-Fluorobenzoyl)-3-hydroxy-2-methylphenoxy)butoxy)-4-methoxybenzoic acid]",1150,3030,143,342
"CCCC(=O)c1ccc(OCCCCOc2ccc(C(=O)O)c(Cl)c2)c(C)c1O [compound 101, 4-[4-(4-Butanoyl-3-hydroxy-2-methylphenoxy)butoxy]-2-chlorobenzoic acid]",33,> 30000,16,> 30000
"Cc1c(OCCCCSc2cccc(C(=O)O)c2)ccc(C(=O)CC(C)C)c1O [compound 81, 3-((4-(3-Hydroxy-2-methyl-4-(3-methylbutanoyl)phenoxy)butyl)thio)benzoic acid]",326,1490,163,966
"CCCC(=O)c1ccc(OCCCCCOc2ccc(C(=O)O)c(F)c2)c(C)c1O [Example 45, 4-[5-(4-Butanoyl-3-hydroxy-2-methylphenoxy)pentyloxy]-2-fluorobenzoic acid]",66,1090,13,943
"CCCC(=O)c1ccc(OC/C=C/COc2cccc(C(=O)O)c2C)c(C)c1O [Example 8, (E)-3-((4-(4-Butyryl-3-hydroxy-2-methylphenoxy)but-2-en-1-yl)oxy)-2-methylbenzoic acid]",19,489,10,534
"CCCC(=O)c1ccc(OCCOCCOc2ccc(C(=O)O)c(Cl)c2)c(C)c1O [Example 41, 4-{2-[2-(4-Butanoyl-3-hydroxy-2-methylphenoxy)ethoxy]ethoxy}-2-chlorobenzoic acid]",15,1000,8,886
"COc1ccc(C(=O)O)cc1OCCC(C)COc1ccc(C(=O)CC(C)(C)C)c(O)c1C (stereo not shown) [Example 33, 3-{4-[4-(3,3-Dimethylbutanoyl)-3-hydroxy-2-methylphenoxy]-3-methylbutoxy}-4-methoxybenzoic acid]",217,197,132,195
"COc1ccc(C(=O)O)cc1OCCCCOc1ccc(C(=O)C2CC2)c(O)c1C [compound 60, 3-(4-(4-(Cyclopropanecarbonyl)-3-hydroxy-2-methylphenoxy)butoxy)-4-methoxybenzoic acid]",117,> 10000,60,598
"CCCC(=O)c1ccc(OCc2cnc(-c3cccc(C(=O)O)c3OC)cn2)c(C)c1O [compound 103, 3-{5-[(4-Butanoyl-3-hydroxy-2-methylphenoxy)methyl]pyrazin-2-yl}-2-methoxybenzoic acid]",198,481,54,375
"[2H]C([2H])(CCCC([2H])([2H])Oc1ccc(C(=O)CCC)c(O)c1C)Oc1ccc(C(=O)O)c(Cl)c1 [Example 53, 4-((5-(4-Butyryl-3-hydroxy-2-methylphenoxy)pentyl-1,1,5,5-d4)oxy)-2-chlorobenzoic acid]",19,920,6,708

# From patent US20250179000A1 (Sanford Burnham Prebys Medical Discovery Institute, priority 2021, published 2025)
